The source of these data is patent US20240103005A1, “N-ACRYLOYLINDOLES AND METHODS OF USE” (The University of Hong Kong, priority 2022, published 2024).

“Also recorded” adds a separate entry of the source.

The nature of data set [1]: Reaction kinetics of cysteine-reactive compounds with N-acetyl-L-cysteine methyl ester (LC-MS). Format: physicochemical. The conditions noted are these: for time to complete reaction with N-acetylcysteine methyl ester: PBS/MeOH 4:1; for calculated rate constant, fold faster than NAIA: reaction with N-Ac-Cys-OMe 250 μM. The procedure: Reaction Kinetics of Cysteine-Reactive Compounds with N-Acetyl-L-Cysteine Methyl Ester
Stock solution of cysteine-reactive compound in DMSO was diluted by PBS/MeOH solution mixture (4:1, v/v; 500 μL), reaching final concentration of 10 μM. Stock solution of N-acetyl-L-cysteine methyl ester in DMSO was then freshly prepared, and added to the compound solution at final concentration of 250 μM. The solution mixture was incubated at room temperature, and at predetermined time intervals, an aliquot of the reaction mixture (10 μL) was sent for LC-MS analysis on Waters Autopurification System using a SunFire C18 HPLC column (50×4.6 mm with 5 μm diameter particles, Waters). Separation was achieved by gradient elution from 5% to 100% MeCN in water (constant 0.1 vol % formic acid) over 4 min, isocratic elution with 100% MeCN (with 0.1 vol % formic acid) from 4 to 8 min, and returning to 5% MeCN in water (with 0.1 vol % formic acid) and equilibrated for 2 min. Selected ion chromatograms, with m/z corresponding to the molecular ion of the compound and/or the adduct, were extracted and the data was analyzed using MassLynx™ software by calculating the area under the curve. The peak area was then calibrated to concentration of the compound/adduct by a set of solution mixtures containing known concentrations of the compound/adduct.
The reactivity of NAIA with cysteine in aqueous buffer solution has been investigated by LC-MS experiments (FIGS. 1A-1J). […] Upon addition of N-acetylcysteine methyl ester (250 μM), NAIA-5 reacted quickly and completely with N-acetylcysteine methyl ester within […], as reflected by the diminishment of the peak of NAIA-5 at t=6.20 min with a concomitant growth of a new peak at t=5.60 min in the LC, which is attributable to the cysteine adduct of NAIA-5 based on the MS (FIGS. 1B-1G). […] This highlights the important contribution of aromaticity of indole scaffold to increase electrophilicity of acrylamide warhead for fast and complete cysteine reaction in aqueous buffer solution.
Next, we monitored the reaction between NAIA-amide (10 μM) and N-acetylcysteine methyl ester (250 μM) by LC-MS analysis (FIG. 17A). Complete conversion of NAIA-C5 amide was observed within 40 s as indicated by the disappearance of NAIA-C5 amide peak (t=5.09 min) and emergence of the adduct peat (t=4.80 min) in the LC trace (FIG. 17B). Likewise, the reaction of NAIA-C4 amide proceeded with fast kinetics and was completely consumed in 1 min (FIG. 17C). The calculated rate constant of NAIA-C5 amide and NAIA-C4 amide were 2-fold and 1.2-fold faster than NAIA (FIG. 17D). […] Owning to the excellent reaction rate of NAIA-C5 amide, it was taken forward for further comparative analysis in subsequent experiments.

Data set [2] relates to 231MFP cells. In words: WST-8 cell viability assay. Format: cell-based. The conditions noted are these: WST-8, 2 h incubation; read-out: IC50 (cytotoxicity). The protocol: WST-8 Cell Viability Assay of Cells Treated with NAIA-4 or IAA
231MFP cells were plated on 96-well plates (Corning, 3904) at 30,000 cells per well and allowed to grow in complete medium overnight. The cells were then incubated with DMSO solvent control, NAIA-4 or IAA at indicated concentrations for 2 h. The solution was replaced with new culture medium containing 10 μL of WST-8 solution (Abcam; ab228554) and incubated for 2 h in dark at 37° C. Cell viability were then assayed by the absorption at 460 nm on SpectraMax i3 (Molecular Devices).
Background: Tetrazolium assays rely on reduction of a dye to a coloured formazan, in cell work by metabolically active cells.

Data set [3] is described as follows: Selectivity for reacting with Cys over other amino acids (LC-MS). The conditions noted are these: compound 10 μM, amino acid 30 μM (3 equiv.), 30 min, PBS/MeOH 4:1. Format: physicochemical. The protocol:
Selectivity of NAI for Reacting with Cys Over Other Amino Acids
Stock solution of NAIA-4 and NAIA-5, respectively, in DMSO was diluted by PBS/MeOH solution mixture (4:1, v/v; 500 μL), reaching final concentration of 10 μM. Stock solution of amino acid in DMSO was then freshly prepared, and added to the compound solution at final concentration of 30 μM. The solution mixture was incubated at room temperature for 30 min. After that, an aliquot of the reaction mixture (10 μL) was sent for LC-MS analysis. Selected ion chromatograms, with m/z=325 corresponding to [NAIA-4+H]^+ or [NAIA-5+H]^+, were extracted and analyzed by integrating the area under curve.
(§1) As fast-reacting probes are often susceptible to hydrolysis, we sought to investigate the aqueous stability of NAIA-C5 amide. […] Taking the excellent reaction kinetics and a mere 14% degradation in 30 min into account, NAIA-C5 amide was considered to be a useful tool in cysteine profiling (FIG. 17C and FIG. 17F).

Data set [4] relates to 231MFP cells. In words: Gel-based ABPP, Cys labeling in live 231MFP cells. Format: cell-based. The conditions noted are these: 1 h pre-treatment. The procedure: FIGS. 10A-10D. Gel-based ABPP experiments of NAIA-4 to investigate its ability to label Cys in cell lysates and live cells. (FIGS. 10A-10B) 231MFP cell lysates (20 μg) were incubated with NAIA-4 or IAA at indicated concentrations for 30 min, following by CuAAC reaction with azide-fluor 545 (5 μM). The labeled proteins were then boiled with sampling buffer, and read out by in-gel fluorescence after SDS-PAGE. Quantified data were shown in average±s.e.m. from n=3 replicates/group. Statistical significance vs untreated control is expressed as *p<0.05; ***p<0.001, and vs different treatment groups is expressed as “p<0.01; ^###p<0.001. (FIGS. 10C-10D) 231MFP cells were pre-treated with NAIA-4 or IAA at indicated concentrations for 1 h. The cells were then washed with DPBS and lysed in DPBS by probe sonication. The cell lysates were labeled with azide-fluor 545 (25 μM) by CuAAC reaction, and the labeled protein were detected by in-gel fluorescence after SDS-PAGE. Quantified data were shown in average±s.e.m. from n=3 biological replicates/group. Statistical significance is expressed as *p<0.05; ***p<0.001.
In-Gel Fluorescence for Visualizing Cys Labeling by NAIAs and IAA in Live Cells
231MFP or HepG2 cells were grown in 10-cm plates in complete medium. […] Protein concentration of the lysates was determined by BCA assay, and the lysates were diluted to 2 mg/mL by DPBS. […]

The subject of the next data set is 231MFP cell lysates. In words: Gel-based ABPP, Cys labeling of 231MFP cell lysates (in-gel fluorescence). Type of data set: biochemical. The conditions noted are these: 30 min incubation. The protocol: FIGS. 10A-10D. Gel-based ABPP experiments of NAIA-4 to investigate its ability to label Cys in cell lysates and live cells. (FIGS. 10A-10B) 231MFP cell lysates (20 μg) were incubated with NAIA-4 or IAA at indicated concentrations for 30 min, following by CuAAC reaction with azide-fluor 545 (5 μM). The labeled proteins were then boiled with sampling buffer, and read out by in-gel fluorescence after SDS-PAGE. Quantified data were shown in average±s.e.m. from n=3 replicates/group. Statistical significance vs untreated control is expressed as *p<0.05; ***p<0.001, and vs different treatment groups is expressed as “p<0.01; ^###p<0.001. (FIGS. 10C-10D) 231MFP cells were pre-treated with NAIA-4 or IAA at indicated concentrations for 1 h. […] The cell lysates were labeled with azide-fluor 545 (25 μM) by CuAAC reaction, and the labeled protein were detected by in-gel fluorescence after SDS-PAGE. Quantified data were shown in average±s.e.m. from n=3 biological replicates/group. Statistical significance is expressed as *p<0.05; ***p<0.001.
In-Gel Fluorescence for Visualizing Cys Labeling by NAIAs and IAA In Vitro
HepG2 or 231MFP cells were lysed by probe sonication in DPBS, and cell debris were removed by centrifugation at 1,000 g for 5 min. Protein concentration of the lysates was determined by bicinchoninic acid (BCA) assay, and the lysates were then diluted to 2 mg/mL by DPBS. […]

A further data set relates to HCT116 cell lysates. In words: Gel-based ABPP, Cys labeling of HCT116 cell lysates. Format: biochemical. The procedure:
FIGS. 18A-18B Gel-based ABPP analysis of NAIA-amides, NAIA-5 and IAA on Cys labeling of HCT116 cell lysates in vitro. HCT116 cell lysates (100 μg) were incubated with the compounds at indicated concentrations and time intervals, following by CuAAC reaction with azide-fluor 545 (25 μM). The labeled proteins were then boiled with sampling buffer, and read out by in-gel fluorescence after SDS-PAGE.
Confirming the reaction between NAIA-C5 amide and cysteine in vitro, we moved on to evaluate its application for cysteine profiling in complex biological sample. To assess this, we performed gel-based ABPP in cell lysates and in live cells. HCT116 cell lysates were incubated with IAA, NAIA and NAIA-Amide, followed by installation of fluorophore by click chemistry. Then, the labelled proteins were resolved by SDS-PAGE and visualized by their in-gel fluorescence. […] In time-dependent experiments, a 15-minute incubation of NAIA-C5 amide with HCT116 cell lysates was sufficient to have decent labeling, highlighting its quick labeling (FIG. 18B).

The nature of data set [5]: Stability in aqueous buffer solution over time (LC-MS). Format: physicochemical. The protocol: Stability of NAIA-5 in Aqueous Buffer Solution Over Time
NAIA-5 (10 μM) was dissolved in PBS/MeOH solution mixture (4:1, v/v; 500 μL) and stay at room temperature. At predetermined time intervals, an aliquot of the reaction mixture (10 μL) was sent for LC-MS analysis on Waters Autopurification System using a SunFire C18 HPLC column (50×4.6 mm with 5 μm diameter particles, Waters). Separation was achieved by gradient elution from 5% to 100% MeCN in water (constant 0.1 vol % formic acid) over 4 min, isocratic elution with 100% MeCN (with 0.1 vol % formic acid) from 4 to 8 min and returning to 5% MeCN in water (with 0.1 vol % formic acid) and equilibrated for 2 min. Selected ion chromatograms, with m/z=325 corresponding to [NAIA-5+H]^+, were extracted and analyzed by integrating the area under curve.
as §1

[6] abbreviates: compound 10 μM, N-Ac-Cys-OMe 250 μM.

On to `C#CCCCCNC(=O)c1cn(C(=O)C=C)c2ccccc12` [NAIA-C3 amide], for which, in data set [1] (setting [6]), the “cysteine reaction rate (in words)” value is “reacted relatively slower despite it still showed superior reaction kinetics over IAA”.

`C=CC(=O)N1CCc2ccccc21` [NAine, N-acryloylindoline]: the “reaction kinetics with cysteine (k)” value in data set [1] (FIG. 7 legend summary) is recorded as < 10^0 M^−1 s^−1.

One may read the IC50 as the concentration that gives 50% inhibition. On to `C#CCCCCNC(=O)COc1cccc2c1ccn2C(=O)C=C` [NAIA-4], for which, in data set [1] (setting [6]), the “time to complete reaction with N-acetylcysteine methyl ester” value is recorded as ≤ 120 s. The IC50 with 231MFP cells [2] was > 40 µM. Also, the “selectivity toward cysteine over other amino acids” value in data set [3] is “excellent selectivity toward cysteine over other amino acids; also recorded: Significant decreases in NAIA-4 and NAIA-5 levels were only found in the solution mixture with N-acetyl-L-cysteine methyl ester”. The “cysteine labeling in live cells (in-gel fluorescence) compared with IAA” value in the data set on 231MFP cells [4] is reported as “more labeling of functional cysteines by NAIA-4 than IAA”. For the same compound, the “cysteine labeling (in-gel fluorescence) compared with IAA” value in the data set on 231MFP cell lysates was “better labeling from NAIA-4 than IAA at all the doses tested”.

As to `C#CCCCCNC(=O)c1ccc2c(ccn2C(=O)C=C)c1` [NAIA-C5 amide], the “time to complete reaction with N-acetylcysteine methyl ester” value in data set [1] (setting [6]) is ≤ 40 s. In data set [1], the “calculated rate constant, fold faster than NAIA” value is 2 fold. Also, the “selectivity toward cysteine over other amino acids” value in data set [3] is “only incubation with cysteine consumed NAIA-C5 amide to an undetectable level”. Also, in the data set with HCT116 cell lysates, the “in-gel fluorescence (in words)” value was “comparable to that by NAIA; also recorded: significantly stronger fluorescence was detected in samples incubated with NAIA or NAIA-C5 amide in a dose-dependent manner” and the “overall in-gel fluorescence intensity, fold higher than IAA” value is listed as 3 fold. The “incubation time sufficient for decent labeling” value with HCT116 cell lysates (time-dependent experiment) came to 15 min. Further, the “change of compound level in aqueous buffer solution over time (in words)” value in data set [5] (10 μM, PBS/MeOH 4:1, room temperature) is on record as “gradual degradation was observed in 3 hours”. The “degradation in aqueous buffer” value in data set [5] (30 min) worked out at 14%.

Consider `C#CCCCCNC(=O)c1cccc2c1ccn2C(=O)C=C` [NAIA-C4 amide], for which the “time to complete consumption by N-acetylcysteine methyl ester” value in data set [1] (setting [6]) is 1 min. Also, in data set [1], the “calculated rate constant, fold faster than NAIA” value is given as 1.2 fold.
